Reference: US9365522B2, “Pyrazole amide derivative” (AMGEN INC., priority 2015, dated 2016)

Molecular target: T1, ligand binding domain of human ROR gamma (Homo sapiens, UniProt P51449)
T1 construct: NM_001001523; expressed in transfected cells; host or cells: HEK293T
T1 sequence (P51449 247-497 isoform P51449-2): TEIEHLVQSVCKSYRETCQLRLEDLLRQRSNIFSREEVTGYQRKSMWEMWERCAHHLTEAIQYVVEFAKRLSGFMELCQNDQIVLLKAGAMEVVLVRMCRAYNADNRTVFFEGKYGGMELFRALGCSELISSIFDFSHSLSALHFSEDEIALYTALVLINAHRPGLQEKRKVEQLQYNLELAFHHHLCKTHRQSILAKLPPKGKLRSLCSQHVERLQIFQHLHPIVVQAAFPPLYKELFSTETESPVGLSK
Assay: ROR gamma reporter gene assay (GAL4-RORγ LBD luciferase, Dual-Glo)
Format: cell-based
Conditions: HEK293T cells transfected with pM-ROR gamma, 8 concentrations 3.5 nM to 10.5 μM, 24 h incubation; read-out: result (pIC50, inhibition of RORγ transcriptional activity) (converted)
In short: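 Inhibition of RORγ-driven transcription was measured in HEK293T cells expressing a GAL4 fusion of the human RORγ LBD (aa 247-497), with renilla luciferase as internal control. Cells in 10% charcoal-stripped serum received compound (3.5 nM–10.5 μM) for 24 h.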

| SMILES | IC50 [pM] |
| --- | --- |
| CC1(C)[C@@H]2C[C@H](N(C[C@H](O)c3ccccc3Cl)C(=O)c3cnn([C@H]4CC[C@](C)(C(=O)O)CC4)c3C(F)(F)F)C[C@@H]21 [Example 368, trans-4-(4-((2-(2-chlorophenyl)-2-hydroxyethyl)((1R,3r,5S)-6,6-dimethylbicyclo[3.1.0]hexan-3-yl)carbamoyl)-5-(trifluoromethyl)-1H-pyrazol-1-yl)-1-methylcyclohexanecarboxylic acid] | 191000 |
| CC1(C)[C@@H]2C[C@H](N(C[C@@H](O)c3ccccc3Cl)C(=O)c3cnn([C@H]4CC[C@](C)(C(=O)O)CC4)c3C(F)(F)F)C[C@@H]21 [Example 369, trans-4-(4-((2-(2-chlorophenyl)-2-hydroxyethyl)((1R,3r,5S)-6,6-dimethylbicyclo[3.1.0]hexan-3-yl)carbamoyl)-5-(trifluoromethyl)-1H-pyrazol-yl)-1-methylcyclohexanecarboxylic acid] | 1.23e+06 |
| COc1ccccc1[C@@H](O)CN(C(=O)c1cnn([C@H]2CC[C@](C)(C(=O)O)CC2)c1C(F)(F)F)[C@H]1C[C@@H]2[C@H](C1)C2(C)C [Example 370, trans-4-(4-(((1R,3r,5S)-6,6-dimethylbicyclo[3.1.0]hexan-3-yl)(2-hydroxy-2-(2-methoxyphenyl)ethyl)carbamoyl)-5-(trifluoromethyl)-1H-pyrazoH-yl)-1-methylcyclohexanecarboxylic acid] | 537000 |
| COc1ccccc1[C@H](O)CN(C(=O)c1cnn([C@H]2CC[C@](C)(C(=O)O)CC2)c1C(F)(F)F)[C@H]1C[C@@H]2[C@H](C1)C2(C)C [Example 371, trans-4-(4-(((1R,3r,5S)-6,6-dimethylbicyclo[3.1.0]hexan-3-yl)(2-hydroxy-2-(2-methoxyphenyl)ethyl)carbamoyl)-5-(trifluoromethyl)-1H-pyrazol-1-yl)-1-methylcyclohexanecarboxylic acid] | 5.37e+06 |
| CC1(C)[C@@H]2C[C@H](N(C[C@H](O)c3ccccc3C(F)(F)F)C(=O)c3cnn([C@H]4CC[C@](C)(C(=O)O)CC4)c3C(F)(F)F)C[C@@H]21 [Example 372, trans-4-(4-(((1R,3r,5S)-6,6-dimethylbicyclo[3.1.0]hexan-3-yl)(2-hydroxy-2-(2-(trifluoromethyl)phenyl)ethyl)carbamoyl)-5-(trifluoromethyl)-1H-pyrazol-1-yl)-1-methylcyclohexanecarboxylic acid] | 331000 |
| CC1(C)[C@@H]2C[C@H](N(C[C@@H](O)c3ccccc3C(F)(F)F)C(=O)c3cnn([C@H]4CC[C@](C)(C(=O)O)CC4)c3C(F)(F)F)C[C@@H]21 [Example 373, trans-4-(4-(((1R,3r,5S)-6,6-dimethylbicyclo[3.1.0]hexan-3-yl)(2-hydroxy-2-(2-(trifluoromethyl)phenyl)ethyl)carbamoyl)-5-(trifluoromethyl)-1H-pyrazol-1-yl)-1-methylcyclohexanecarboxylic acid] | 3.39e+06 |
| COc1cccc(Cl)c1[C@@H](O)CN(C(=O)c1cnn([C@H]2CC[C@](C)(C(=O)O)CC2)c1Cl)[C@H]1C[C@@H]2[C@H](C1)C2(C)C [Example 374, trans-4-(5-chloro-4-((2-(2-chloro-6-methoxyphenyl)-2-hydroxyethyl)((1R,3r,5S)-6,6-dimethylbicydo[3.1.0]hexan-3-yl)carbamoyl)-1H-pyrazol-1-yl)-1-methylcyclohexanecarboxylic acid] | 661000 |
| COc1cccc(Cl)c1[C@H](O)CN(C(=O)c1cnn([C@H]2CC[C@](C)(C(=O)O)CC2)c1Cl)[C@H]1C[C@@H]2[C@H](C1)C2(C)C [Example 375, trans-4-(5-chloro-4-((2-(2-chloro-6-methoxyphenyl)-2-hydroxyethyl)((1R,3r,5S)-6,6-dimethylbicydo[3.1.0]hexan-3-yl)carbamoyl)-1H-pyrazol-1-yl)-1-methylcyclohexanecarboxylic acid] | 107000 |
| CC1(C)[C@@H]2C[C@H](N(CCc3n[nH]c4cccc(Cl)c34)C(=O)c3cnn([C@H]4CC[C@](C)(C(=O)O)CC4)c3C(F)(F)F)C[C@@H]21 [Example 376, trans-4-(4-((2-(4-chloro-1H -indazol-3-yl)ethyl)((1R,3r,5S)-6,6-dimethylbicyclo[3.1.0]hexan-3-yl)carbamoyl)-5-(trifluoromethyl)-1H-pyrazol-1-yl)-1-methylcyclohexanecarboxylic acid] | 309000 |
| CC(CN(C(=O)c1cnn([C@H]2CC[C@](C)(C(=O)O)CC2)c1C(F)(F)F)[C@H]1C[C@@H]2[C@H](C1)C2(C)C)c1c[nH]c2cccc(Cl)c12 (stereo partly drawn) [Example 377, trans-4-(4-((2-(4-chloro-1H-indol-3-yl)propyl)((1R,3r,5S)-6,6-dimethylbicyclo[3.1.0]hexan-3-yl)carbamoyl)-5-(trifluoromethyl)-1H-pyrazol-1-yl)-1-methylcyclohexanecarboxylic acid] | 437000 |
| CC1(CN(CC(=O)c2c(Cl)cncc2Cl)C(=O)c2cnn([C@H]3CC[C@](C)(C(=O)O)CC3)c2Cl)CC1 [Example 378, trans-4-(5-chloro-4-((2-(3,5-dichloropyridin-4-yl)-2-oxoethyl)-((1-methylcyclopropyl)methyl)carbamoyl)pyrazol-1-yl)-1-methylcyclohexane-1-carboxylic acid] | 74100 |
| Cc1cncc(Cl)c1C(=O)CN(CC(C)(C)C)C(=O)c1cnn([C@H]2CC[C@](C)(C(=O)O)CC2)c1C(F)(F)F [Example 379, trans-4-(4-((2-(3-chloro-5-methylpyridin-4-yl)-2-oxoethyl)-(2,2-dimethylpropyl)carbamoyl)-5-(trifluoromethyl)pyrazol-1-yl)-1-methylcyclohexane-1-carboxylic acid] | 79400 |
| CC1(C)[C@@H]2C[C@H](N(CCc3c[nH]c4cncc(Cl)c34)C(=O)c3cnn([C@H]4CC[C@](C)(C(=O)O)CC4)c3C(F)(F)F)C[C@@H]21 [Example 380, trans-4-(4-((2-(4-chloro-1H -pyrrolo(2,3-c)pyridin-3-yl)ethyl)((1R,3r,5S)-6,6-dimethylbicyclo[3.1.0]hexan-3-yl)carbamoyl)-5-(trifluoromethyl)-1H-pyrazol-1-yl)-1-methylcyclohexanecarboxylic acid] | 83200 |
| CC1(C)CC(CN(CC(=O)c2c(Cl)cncc2Cl)C(=O)c2cnn([C@H]3CC[C@](C)(C(=O)O)CC3)c2Cl)C1 [Example 381, trans-4-(5-chloro-4-((2-(3,5-dichloropyridin-4-yl)-2-oxoethyl)-((3,3-dimethylcyclobutyl)methyl)carbamoyl)pyrazol-1-yl)-1-methylcyclohexane-1-carboxylic acid] | 100000 |
| Cc1c(C(=O)N(CC(=O)c2c(Cl)cncc2Cl)CC2CC(C)(C)C2)cnn1[C@H]1CC[C@](C)(C(=O)O)CC1 [Example 382, trans-4-(4-((2-(3,5-dichloropyridin-4-yl)-2-oxoethyl)-((3,3-dimethylcyclobutyl)methyl)carbamoyl)-5-methylpyrazol-1-yl)-1-methylcyclohexane-1-carboxylic acid] | 257000 |
| CC1(C)[C@@H]2C[C@H](N(C[C@H](O)c3c(F)cncc3Cl)C(=O)c3cnn([C@H]4CC[C@](C)(C(=O)O)CC4)c3C(F)(F)F)C[C@@H]21 [Example 383, trans-4-(4-((2-(3-chloro-5-fluoropyridin-4-yl)-2-hydroxyethyl)((1R,3r,5S)-6,6-dimethylbicyclo[3.1.0]hexan-3-yl)carbamoyl)-5-(trifluoromethyl)-1H-pyrazol-1-yl)-1-methylcyclohexanecarboxylic acid] | 39800 |
| CC1(C)[C@@H]2C[C@H](N(C[C@@H](O)c3c(F)cncc3Cl)C(=O)c3cnn([C@H]4CC[C@](C)(C(=O)O)CC4)c3C(F)(F)F)C[C@@H]21 [Example 384, trans-4-(4-((2-(3-chloro-5-fluoropyridin-4-yl)-2-hydroxyethyl)((1R,3r,5S)-6,6-dimethylbicyclo[3.1.0]hexan-3-yl)carbamoyl)-5-(trifluoromethyl)-1H-pyrazol-1-yl)-1-methylcyclohexanecarboxylic acid] | 347000 |
| CC1(C)[C@@H]2C[C@H](N(CC(=O)c3c(Cl)cccc3Cl)C(=O)c3cnn([C@H]4CC[C@](C)(C(=O)O)CC4)c3C3CC3)C[C@@H]21 [Example 385, trans-4-(5-cyclopropyl-4-((2-(2,6-dichlorophenyl)-2-oxoethyl)((1R,3r,5S)-6,6-dimethylbicyclo[3.1.0]hexan-3-yl)carbamoyl)-1H-pyrazol-1-yl)-1-methylcyclohexanecarboxylic acid] | 18600 |
| CC12CCC(CN(CC(=O)c3c(Cl)cncc3Cl)C(=O)c3cnn([C@H]4CC[C@](C)(C(=O)O)CC4)c3Cl)(CC1)O2 [Example 386, trans-4-(5-chloro-4-((2-(3,5-dichloropyridin-4-yl)-2-oxoethyl)-((1-methyl-7-oxabicyclo[2.2.1]heptan-4-yl)methyl)carbamoyl)pyrazol-1-yl)-1-methylcyclohexane-1-carboxylic acid] | 141000 |
